# Measurements: patent publication US11254688B2 (Boehringer Ingelheim International GmbH, priority 2018, dated 2022)
# Where a name gives a salt, the structure may show the parent alone.
# Target: T1, hGOAT (Homo sapiens, UniProt Q96T53)
# T1 construct: expressed in transfected cells; host or cells: HEK293 (Hek293 hGOAT/PPGhrl Clone #1B8)
# T1 sequence (Q96T53 1-435): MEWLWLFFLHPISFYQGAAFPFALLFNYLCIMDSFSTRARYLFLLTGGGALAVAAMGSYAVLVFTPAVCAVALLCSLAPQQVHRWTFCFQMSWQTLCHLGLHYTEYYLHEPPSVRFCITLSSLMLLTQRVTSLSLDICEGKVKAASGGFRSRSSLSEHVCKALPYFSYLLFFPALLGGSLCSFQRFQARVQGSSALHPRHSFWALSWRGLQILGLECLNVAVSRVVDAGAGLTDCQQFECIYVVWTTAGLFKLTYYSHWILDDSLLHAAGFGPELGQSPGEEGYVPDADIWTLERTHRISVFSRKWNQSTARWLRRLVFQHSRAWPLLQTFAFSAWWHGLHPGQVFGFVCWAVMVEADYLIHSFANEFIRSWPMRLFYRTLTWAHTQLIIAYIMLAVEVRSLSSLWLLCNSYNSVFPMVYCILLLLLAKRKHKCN
# Experiment: Determination of hGOAT activity in HEK293 cells after incubation with test compound (acyl-ghrelin ELISA)
# Type: cell-based
# Settings: HEK293 cells stably transfected with preproghrelin and human GOAT; octanoate-BSA 100 μM; 5 hours incubation; acyl-ghrelin in medium by ELISA; 8 compound concentrations
# Method: Determination of hGOAT Activity in HEK293 Cells after Incubation with Test Compound
# HEK293 cells stably transfected with two expression vectors, one coding for preproghrelin cDNA and a second for the expression of human GOATcDNA are used as a cellular model. After feeding the cells with octanoic acid for 5 hours, acyl-ghrelin is measured in cell culture medium by an ELISA procedure.
# Cellline: Hek293 hGOAT/PPGhrl Clone #1B8Sodium octanoate, Sigma, Cat.-No. C5038
# BD Poly-D-Lysin 384-well Plates, black-clear polystyrene BD Bioscience Cat.-No. […] ELISA human acylated Ghrelin Kit purchased from Bertin Pharman (detailed composition of buffers e.g. wash-puffer, ELISA buffer not known)
# Cells are plated with a density of 5000 cells/well in 384-well poly-D-lysin plates and incubated for 1 day at 37° C., 5% CO2 in DMEM medium, 10% FCS, 1×NEAA, Puromycin (0.5 μg/ml) and G418 (1 mg/ml). Then the medium is changed to a identical medium without FCS and containing Octanoate-BSA (final concentration 100 μM each) and compound in DMSO (final DMSO concentration 0,3%). After incubation for 5 hours acylghrelin in the medium is measured by ELISA.
# The medium sample is diluted 1:25 in Elisa buffer, a 25 μl aliquot is transferred to a 384-well ELISA plate previously washed 4 times with 100 μL wash buffer, and 25 μl tracer-solution is added. After incubation overnight (˜20 h) at 4° C. temperature the plate is washed 4 times with 100 μl wash-buffer per well. Finally 50 μl Ellman's reagent is added to each well and the plate is incubated in the dark for 20 minutes. The absorbance is measured at 405 nm in an Envision multilabel reader and the amount of acylated ghrelin is calculated according to a acylated ghrelin standard curve provided in the same plate.
# The analysis of the data is performed by calculation of the percentage of acyl-ghrelin produced in the presence of test compound compared to the amount of acyl-ghrelin produced in the vehicle control samples. An inhibitor of the GOAT enzyme will give values between 100% CTL (no inhibition) and 0% CTL (complete inhibition).
# IC50 values are calculated with Assay Explorer or other suited software based on curve fitting of results of 8 different compound concentrations.
row,SMILES,IC50 [nM]
1,"Cc1nc2nonc2c(N)c1Cc1ccc(OC(F)(F)F)cc1F [Compound 4.46, 6-(2-Fluoro-4-trifluoromethoxy-benzyl)-5-methyl-[1,2,5]oxadiazolo[3,4-b]pyridin-7-ylamine]",0.052
2,"Cc1nc2nonc2c(N)c1Cc1ccc(C#N)c(F)c1 [Compound 4.31, 4-({7-Amino-5-methyl-[1,2,5]oxadiazolo[3,4-b]pyridin-6-yl}methyl)-2-fluorobenzonitrile]",0.487
3,"Cc1nc2nonc2c(N)c1Cc1ccc(C(F)(F)F)nc1 [Compound 4.5, 5-Methyl-6-{[6-(trifluoromethyl)pyridin-3-yl]methyl}-[1,2,5]oxadiazolo[3,4-b]pyridin-7-amine]",1.59
4,"Cc1nc2nonc2c(N)c1Cc1ccc(F)nc1 [Compound 4.4, 6-[(6-Fluoropyridin-3-yl)methyl]-5-methyl-[1,2,5]oxadiazolo[3,4-b]pyridin-7-amine]",4.06
5,"COc1cc(OC(F)(F)F)ccc1Cc1c(C)nc2nonc2c1N [Compound 2.1, 6-{[2-Methoxy-4-(trifluoromethoxy)phenyl]methyl}-5-methyl-[1,2,5]oxadiazolo[3,4-b]pyridin-7-amine]",0.092
6,"COC(=O)c1ccc(Cc2c(C)nc3nonc3c2N)cc1 [Compound 2.10, Methyl 4-({7-amino-5-methyl-[1,2,5]oxadiazolo[3,4-b]pyridin-6-yl}methyl)benzoate]",0.132
7,"Cc1nc2nonc2c(N)c1Cc1ccc(OC(F)F)n2cnnc12 [Compound 4.15, 6-{[5-(Difluoromethoxy)-[1,2,4]triazolo[4,3-a]pyridin-8-yl]methyl}-5-methyl-[1,2,5]oxadiazolo[3,4-b]pyridin-7-amine]",0.33
8,"Cc1nc2nonc2c(N)c1Cc1cccc(OC(F)F)c1 [Compound 4.54, 6-{[3-(Difluoromethoxy)phenyl]methyl}-5-methyl-[1,2,5]oxadiazolo[3,4-b]pyridin-7-amine]",0.495
9,"Cc1nc2nonc2c(N)c1Cc1ccc(OC(F)(F)F)c(Br)c1 [Compound 2.14, 6-{[3-Bromo-4-(trifluoromethoxy)phenyl]methyl}-5-methyl-[1,2,5]oxadiazolo[3,4-b]pyridin-7-amine]",0.096
10,"Cc1nc2nonc2c(N)c1Cc1cnc(OC(F)F)c(C#N)c1 [Compound 4.49, 5-({7-Amino-5-methyl-[1,2,5]oxadiazolo[3,4-b]pyridin-6-yl}methyl)-2-(difluoromethoxy)pyridine-3-carbonitrile]",35.7
11,"COc1cccc(Cc2c(C)nc3nonc3c2N)c1 [Compound 4.51, 6-[(3-Methoxyphenyl)methyl]-5-methyl-[1,2,5]oxadiazolo[3,4-b]pyridin-7-amine]",0.673
12,"COc1ccc(Cc2c(C)nc3nonc3c2N)cc1 [Compound 4.53, 6-[(4-Methoxyphenyl)methyl]-5-methyl-[1,2,5]oxadiazolo[3,4-b]pyridin-7-amine]",0.147
13,"Cc1nc2nonc2c(N)c1Cc1cccc(F)c1 [Compound 4.2, 6-[(3-Fluorophenyl)methyl]-5-methyl-[1,2,5]oxadiazolo[3,4-b]pyridin-7-amine]",2.26
14,"Cc1nc2nonc2c(N)c1C(=O)c1ccc(C(F)(F)F)cc1 [Compound 3.1, 5-Methyl-6-[4-(trifluoromethyl)benzoyl]-[1,2,5]oxadiazolo[3,4-b]pyridin-7-amine]",5.83
15,"Cc1nc2nonc2c(N)c1Cc1ccc(OC(F)F)nc1 [Compound 4.16, 6-{[6-(Difluoromethoxy)pyridin-3-yl]methyl}-5-methyl-[1,2,5]oxadiazolo[3,4-b]pyridin-7-amine]",0.642
16,"Cc1nc2nonc2c(N)c1Cc1ccc(C2(C#N)CC(F)(F)C2)nc1 [Compound 4.28, 1-[5-({7-Amino-5-methyl-[1,2,5]oxadiazolo[3,4-b]Pyridin-6-yl}methyl)pyridin-2-yl]-3,3-difluorocyclobutane-1-carbonitrile]",1.5
17,"Cc1nc2nonc2c(N)c1Cc1ccnc(C(F)(F)F)c1 [Compound 4.40, 5-Methyl-6-{[2-(trifluoromethyl)pyridin-4-yl]methyl}-[1,2,5]oxadiazolo[3,4-b]pyridin-7-amine]",2.21

# The remaining lines, values ahead:
row,IC50 [nM],SMILES
1,1.31,"Cc1nc2nonc2c(N)c1Cc1ccc(-c2c(C)noc2C)n2cnnc12 [Compound 12.11, 6-{[5-(3,5-Dimethyl-1,2-oxazol-4-yl)-[1,2,4]triazolo[4,3-a]pyridin-8-yl]methyl}-5-methyl-[1,2,5]oxadiazolo[3,4-b]pyridin-7-amine]"
2,4.5,"Cc1nc2nonc2c(N)c1Cc1ccc(C(=O)Nc2ncnn2C)cc1 [Compound 14.17, 4-({7-Amino-5-methyl-[1,2,5]oxadiazolo[3,4-b]pyridin-6-yl}methyl)-N-(1-methyl-1H-1,2,4-triazol-5-yl)benzamide]"
3,4.84,"Cc1nc2nonc2c(N)c1Cc1cnc(Cl)cc1C(F)F [Compound 25.2, 6-{[6-Chloro-4-(difluoromethyl)pyridin-3-yl]methyl}-5-methyl-[1,2,5]oxadiazolo[3,4-b]pyridin-7-amine]"
4,3.73,"Cc1nc2nonc2c(N)c1Cc1ccc(C(=O)NC(CO)C2CC2)cc1 (centres unmarked) [Compound 14.16, 4-({7-Amino-5-methyl-[1,2,5]oxadiazolo[3,4-b]pyridin-6-yl}methyl)-N-(1-cyclopropyl-2-hydroxyethyl)benzamide]"
5,0.183,"Cc1nc2nonc2c(N)c1Cc1ccc(OC(F)(F)F)c(C(=O)N(C)C)c1 [Compound 15.1, 5-({7-Amino-5-methyl-[1,2,5]oxadiazolo[3,4-b]pyridin-6-yl}methyl)-N,N-dimethyl-2-(trifluoromethoxy)benzamide]"
6,0.171,"Cc1nc2nonc2c(N)c1Cc1ccc(C(F)F)cc1 [Compound 17.2, 6-{[4-(difluoromethyl)phenyl]methyl}-5-methyl-[1,2,5]oxadiazolo[3,4-b]pyridin-7-amine]"
7,2.42,"N#Cc1nc2nonc2c(N)c1Cc1ccc(C(F)(F)F)cc1 [Compound 24.4, 7-Amino-6-{[4-(trifluoromethyl)phenyl]methyl}-[1,2,5]oxadiazolo[3,4-b]pyridine-5-carbonitrile]"
8,1.26,"Cc1nc2nonc2c(N)c1Cc1ccc(C(F)(F)F)c(C(=O)N(C)C)c1 [Compound 15.6, 5-({7-Amino-5-methyl-[1,2,5]oxadiazolo[3,4-b]pyridin-6-yl}methyl)-N,N-dimethyl-2-(trifluoromethyl)benzamide]"
9,3.24,"Cc1nc2nonc2c(N)c1Cc1ccc(-n2cccn2)nc1 [Compound 20.2, 5-Methyl-6-{[6-(1H-pyrazol-1-yl)pyridin-3-yl]methyl}-[1,2,5]oxadiazolo[3,4-b]pyridin-7-amine Trifluoro-Acetic Acid Salt]"
10,0.26,"Cc1nc2nonc2c(N)c1Cc1ccc(OC(F)(F)F)c(C#N)c1 [Compound 16.1, 5-({7-Amino-5-methyl-[1,2,5]oxadiazolo[3,4-b]pyridin-6-yl}methyl)-2-(trifluoromethoxy)benzonitrile]"
11,0.432,"Cc1nc2nonc2c(N)c1Cc1ccc(Cl)cc1 [Compound 22.1, 6-[(4-Chlorophenyl)methyl]-5-methyl-[1,2,5]oxadiazolo[3,4-b]pyridin-7-amine]"
12,3.5,"Cc1nc2nonc2c(N)c1Cc1ccc(Cl)nc1C(F)F [Compound 25.1, 6-{[6-Chloro-2-(difluoromethyl)pyridin-3-yl]methyl}-5-methyl-[1,2,5]oxadiazolo[3,4-b]pyridin-7-amine]"
